Reference: BindingDB's records for patent US10550100 (GALAPAGOS NV, 2020)

Target: T1, A disintegrin and metalloproteinase with thrombospondin motifs 6 (Human, UniProt Q9UKP5)
T1 sequence (Q9UKP5 whole entry): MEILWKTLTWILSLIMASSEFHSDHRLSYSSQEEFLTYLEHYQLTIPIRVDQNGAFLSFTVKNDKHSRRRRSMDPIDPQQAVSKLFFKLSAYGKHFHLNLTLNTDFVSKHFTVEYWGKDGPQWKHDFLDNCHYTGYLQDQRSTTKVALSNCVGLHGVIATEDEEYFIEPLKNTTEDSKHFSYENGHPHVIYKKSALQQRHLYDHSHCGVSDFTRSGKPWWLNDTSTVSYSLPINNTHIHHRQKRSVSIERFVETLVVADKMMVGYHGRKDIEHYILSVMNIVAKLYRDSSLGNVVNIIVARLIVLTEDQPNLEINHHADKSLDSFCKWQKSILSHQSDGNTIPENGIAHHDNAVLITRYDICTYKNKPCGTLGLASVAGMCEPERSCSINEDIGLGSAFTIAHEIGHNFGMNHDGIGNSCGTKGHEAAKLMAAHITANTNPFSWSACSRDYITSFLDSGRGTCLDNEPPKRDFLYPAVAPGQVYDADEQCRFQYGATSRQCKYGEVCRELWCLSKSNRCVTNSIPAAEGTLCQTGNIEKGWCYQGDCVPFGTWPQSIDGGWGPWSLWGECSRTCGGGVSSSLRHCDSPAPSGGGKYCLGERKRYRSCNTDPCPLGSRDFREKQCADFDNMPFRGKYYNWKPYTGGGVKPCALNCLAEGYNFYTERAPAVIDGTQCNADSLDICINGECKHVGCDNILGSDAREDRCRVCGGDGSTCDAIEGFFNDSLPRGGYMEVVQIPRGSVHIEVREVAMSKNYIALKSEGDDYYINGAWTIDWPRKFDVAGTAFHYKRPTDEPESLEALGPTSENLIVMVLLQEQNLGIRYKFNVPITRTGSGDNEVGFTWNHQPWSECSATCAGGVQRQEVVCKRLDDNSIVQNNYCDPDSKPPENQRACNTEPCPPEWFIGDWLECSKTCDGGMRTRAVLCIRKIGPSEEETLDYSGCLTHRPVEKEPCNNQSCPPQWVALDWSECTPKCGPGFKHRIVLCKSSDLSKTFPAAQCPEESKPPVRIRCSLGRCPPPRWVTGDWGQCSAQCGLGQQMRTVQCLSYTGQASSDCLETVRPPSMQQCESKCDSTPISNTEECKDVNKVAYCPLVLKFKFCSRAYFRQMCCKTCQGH
Assay: hADAMTS-6 Assay
Protocol: Without ADAMTS6, the emission of the probe is quenched. If the substrate is cleaved by ADAMTS6, the emission of the probe is not quenched anymore. […] The reaction is started by addition of 10 μL of 1 μM 520 MMP FRET Substrate XII (final concentration, diluted in same buffer as described above) and the mixture is incubated at 37° C. for 2 h. […] After this incubation, cleavage of the substrate is measured using the Envision (Perkin Elmer, exc485/em530).

## COc1c(Cl)cc(Cl)cc1C1CCN(C(=O)CC[C@H]2NC(=O)NC2=O)CC1 [US10550100, Compound 70]
  IC50: > 100 nM
